US8986995B2, “Methods of deriving differentiated cells from stem cells” (International Stem Cell Corporation, priority 2008, dated 2015)
Entries after “also recorded” stand apart in the source; their conditions may differ.

Experiments:
hpSC line 2 p = test: Flow cytometry for CXCR4-positive definitive endoderm cells after differentiation, line 2 p; type: cell-based, human; conditions: TSA pretreatment
Protocol: (§1) Cell culture. Undifferentiated hpSC and hESC were maintained on mouse embryo fibroblast feeder layers in KnockOut DMEM/F12 (Invitrogen) supplemented with 15% KnockOut serum replacement (Invitrogen), 0.05 mM nonessential amino acids (NEAA) (Invitrogen), 2 mM Glutamax-I (Invitrogen), penicillin/streptomycin (Invitrogen), 55 μM 2-mercapthoethonol (Invitrogen), 5 ng/ml recombinant human FGF-basic (PeproTech) and 20 ng/ml recombinant human activin A (R&D Systems); for TSA-pretreatment culture medium was supplemented with 100 nM TSA (Sigma) for 24 hours. Cultures were manually passaged at 1:4-1:6 split ratio every 5-7 days. Differentiation was carried out in RPMI 1640 (Invitrogen) supplemented with Glutamax-I, penicillin/streptomycin, 0.5 mg/ml human serum albumin (Sigma), 100 ng/ml recombinant human Activin A, 75 ng/ml recombinant mouse Wnt3a (R&D Systems) for the first 24 hours only. For subsequent days of differentiation media was RPMI 1640 supplemented with 0.2% human AB serum (Fisher BioReagents) and 100 ng/ml recombinant human Activin A. Before initiating differentiation, stem cells were given a brief wash in DPBS (HyClone). […]
(§2) Flow cytometry. […] Flow cytometry data were acquired on a Beckton Dickinson FACS Caliber and analyzed using FACSDiva software (BD Bioscience).

hpSC line 6 p = test: Flow cytometry for CXCR4-positive definitive endoderm cells after differentiation, line 6 p; type: cell-based, human; conditions: TSA pretreatment
Protocol: as §1, §2

hpSC line 8 p = test: Flow cytometry for CXCR4-positive definitive endoderm cells after differentiation, line 8 p; type: cell-based, human; conditions: TSA pretreatment
Protocol: as §1, §2

hpSC line 15 ph = test: Flow cytometry for CXCR4-positive definitive endoderm cells after differentiation, line 15 ph; type: cell-based, human; conditions: TSA pretreatment
Protocol: as §1, §2

[1] = tested on: human parthenogenetic stem cells (hpSC); test: Flow cytometry for CXCR4-positive cells, hpSC differentiation to definitive endoderm; type: cell-based; conditions: all 4 hpSC lines, CXCR4-positive cells by flow cytometry
Protocol: as §1
Flow cytometry. […] Flow cytometry data were acquired on a Beckton Dickinson FACS Caliber and analyzed using FACSDiva software (BD Bioscience). […]

[2] = tested on: human parthenogenetic stem cells (hpSC); test: SOX17 immunostaining of differentiated hpSC; type: cell-based
Protocol: (§3) Cell culture. Undifferentiated hpSC and hESC were maintained on mouse embryo fibroblast feeder layers in KnockOut DMEM/F12 (Invitrogen) supplemented with 15% KnockOut serum replacement (Invitrogen), 0.05 mM nonessential amino acids (NEAA) (Invitrogen), 2 mM Glutamax-I (Invitrogen), penicillin/streptomycin (Invitrogen), 55 μM 2-mercapthoethonol (Invitrogen), 5 ng/ml recombinant human FGF-basic (PeproTech) and 20 ng/ml recombinant human activin A (R&D Systems); for TSA-pretreatment culture medium was supplemented with 100 nM TSA (Sigma) for 24 hours. Cultures were manually passaged at 1:4-1:6 split ratio every 5-7 days. Differentiation was carried out in RPMI 1640 (Invitrogen) supplemented with Glutamax-I, penicillin/streptomycin, 0.5 mg/ml human serum albumin (Sigma), 100 ng/ml recombinant human Activin A, 75 ng/ml recombinant mouse Wnt3a (R&D Systems) for the first 24 hours only. For subsequent days of differentiation media was RPMI 1640 supplemented with 0.2% human AB serum (Fisher BioReagents) and 100 ng/ml recombinant human Activin A. Before initiating differentiation, stem cells were given a brief wash in DPBS (HyClone). […] The protocol is divided into two stages: TSA-pretreatment stage (orange color) and DE differentiation stage (green color). […]

[3] = tested on: human parthenogenetic stem cells (hpSC); test: Real-time quantitative PCR of marker gene expression in hpSC; type: cell-based
Protocol: Cell culture. Undifferentiated hpSC and hESC were maintained on mouse embryo fibroblast feeder layers in KnockOut DMEM/F12 (Invitrogen) supplemented with 15% KnockOut serum replacement (Invitrogen), 0.05 mM nonessential amino acids (NEAA) (Invitrogen), 2 mM Glutamax-I (Invitrogen), penicillin/streptomycin (Invitrogen), 55 μM 2-mercapthoethonol (Invitrogen), 5 ng/ml recombinant human FGF-basic (PeproTech) and 20 ng/ml recombinant human activin A (R&D Systems); for TSA-pretreatment culture medium was supplemented with 100 nM TSA (Sigma) for 24 hours. Cultures were manually passaged at 1:4-1:6 split ratio every 5-7 days. Differentiation was carried out in RPMI 1640 (Invitrogen) supplemented with Glutamax-I, penicillin/streptomycin, 0.5 mg/ml human serum albumin (Sigma), 100 ng/ml recombinant human Activin A, 75 ng/ml recombinant mouse Wnt3a (R&D Systems) for the first 24 hours only. For subsequent days of differentiation media was RPMI 1640 supplemented with 0.2% human AB serum (Fisher BioReagents) and 100 ng/ml recombinant human Activin A. Before initiating differentiation, stem cells were given a brief wash in DPBS (HyClone). […] The protocol is divided into two stages: TSA-pretreatment stage (orange color) and DE differentiation stage (green color). TSA-pretreatment is performed against background of the culture conditions that support pluripotency state of the hpSC at time interval from “−24” hours till “0” hours. Differentiation starts from time point “0” hours by applying Activin A- and Wnt3a-signaling and withholding TSA from culture medium. Several markers characteristics of each cell population are listed.
Real-time quantitative PCR. Sample collection, reverse transcription and real-time PCR reactions were as previously described (D'Amour et al, Nat. Biotechnol 23:1534-41, 2005).

undifferentiated hpSC = test: Cell death and morphology of undifferentiated hpSC under pretreatment; type: cell-based, human; conditions: TSA pretreatment of undifferentiated hpSC
Protocol: as §3

[4] = tested on: LLC-6p parthenogenetic stem cell line; test: Immunostaining of definitive endoderm markers, Example 1 protocol; type: cell-based, human; conditions: 100 μM TSA pretreatment, then D1, D2, D3 media
Protocol: These endoderm-like cells were derived according a protocol of various culture media (D1-Activin A+Wnt3a; D2-Activin A; D3—Activin A; see Tables 1-4, below). However, prior to culture, the parthenogenetic cells were exposed to a pretreatment agent (trichostatin A (TSA)).
Accordingly, a protocol for generating definitive endoderm cells is as follows: (i) addition of 100 μM trichostatin A (TSA) to culture medium (phSC culture medium+TSA) and culture cells for about 24 hours; (ii) cultivation of the cells in phSC culture medium+TSA for about 24 hours; (iii) remove TSA from the culture (i.e., cultivation of the cells in culture medium D1 for about 24 hours); (iv) cultivation of the cells in culture medium D2 for about 24 hours; and (v) cultivation of the cells in culture medium D3 for about 24 hours.

hpSC = test: Proportion of DE derived from hpSC, HDAC inhibitor pretreatment versus simultaneous application with Activin A; type: cell-based, human; conditions: for enhancement in the proportion of DE produced from hpSC: applied at the same time with Activin A
[5] = tested on: mouse embryonic stem cells; conditions: cited from earlier work

Compound	CXCR-4 (CD184) + [% "Intact" Cells] (hpSC line 2 p; 3 day of differentiation) [%]	CXCR-4 (CD184) + [% "Intact" Cells] (hpSC line 2 p; 4 day of differentiation) [%]	CXCR-4 (CD184) + [% "Intact" Cells] (hpSC line 6 p; 3 day of differentiation) [%]	CXCR-4 (CD184) + [% "Intact" Cells] (hpSC line 6 p; 4 day of differentiation) [%]	CXCR-4 (CD184) + [% "Intact" Cells] (hpSC line 8 p; 3 day of differentiation) [%]	CXCR-4 (CD184) + [% "Intact" Cells] (hpSC line 8 p; 4 day of differentiation) [%]	CXCR-4 (CD184) + [% "Intact" Cells] (hpSC line 15 ph; 3 day of differentiation) [%]	CXCR-4 (CD184) + [% "Intact" Cells] (hpSC line 15 ph; 4 day of differentiation) [%]	increase in number of definitive endoderm cells over non-pretreated cultures [1]	relative proportion of SOX17 immunoreactive cells ([2]; after differentiation during 72 hours, TSA-treated versus non treated hpSC cultures)	proportion of SOX17-positive cells ([2]; hpSC pretreated with TSA 24 hours, after 72 hours of differentiation)	brachyury gene expression during differentiation ([3]; TSA-pretreated versus non TSA pretreated cultures, 24 h and 48 h of differentiation)	brachyury expression after pretreatment ([3]; after 24 hours TSA pretreatment, before start of differentiation (0h))	expression of pluripotency genes OCT4 and SOX2 and DE genes CER1, SOX17, CXCR4 ([3]; after TSA pretreatment, before start of differentiation (0h))	cell death and cell morphology (undifferentiated hpSC)	FoxA2 expression by immunostaining [4]	Sox17 expression by immunostaining [4]	enhancement in the proportion of DE produced from hpSC (hpSC)	effect on pluripotency factors including Nanog [5]	proportion of DE derived from hpSC (hpSC; pretreatment of hpSC before Activin A)
CC(/C=C/C(=O)NO)=C\[C@@H](C)C(=O)c1ccc(N(C)C)cc1 [TSA, trichostatin A]	61.0	58.9	61.2	67.6	67.1	76.7	24.1	34.2	1.4-1.8 fold	most numerous	greater than 70%	higher peak level of brachyury gene expression at 24 h and sharper kinetic of reduced expression at 48 h; also recorded: significantly higher levels of brachyury transcripts	slight upregulation of brachyury expression	no significant changes	some cell death as well as changes in cell morphology	overwhelming majority of cells expressed FoxA2	majority of cells expressed Sox17	did not produce any enhancement	suppression of important pluripotency factors	–
CCCC(=O)[O-].[Na+] [NaB, sodium butyrate]	–	–	–	–	–	–	–	–	–	–	–	–	–	–	–	–	–	did not produce any enhancement	–	increased the proportion of DE
